Assays:
[1] = test system: Plasmodium falciparum; assay: NOVARTIS: Inhibition of Plasmodium falciparum 3D7 (drug-susceptible) proliferation in erythrocyte-based infection assay; type: functional, organism-based; conditions: Plasmodium falciparum, 3D7
[2] = test system: Plasmodium falciparum; assay: NOVARTIS: Inhibition of Plasmodium falciparum W2 (drug-resistant) proliferation in erythrocyte-based infection assay; type: functional, organism-based; conditions: Plasmodium falciparum, W2; read-out: EC50
[3] = NOVARTIS: Cytotoxicity against human hepatocellular carcinoma cell line (Huh7); type: toxicity, cell-based, Huh-7; conditions: Huh7 cells (hepatocellular carcinoma cell line)

SMILES | EC50 [1] [nM] | EC50 [2] [nM] | CC50 [3] [nM]
COc1ccccc1N1CCN(C2CCN(C3CCC(c4ccccc4)CC3)CC2)CC1 (configuration not stated) | 293 | 670 | 20200
O=C(c1cccc(F)c1)N1CCN(Cc2ccncc2)CC1 | > 9940 | 2170 | > 100000
CCOc1ccc2nc3cc(NC(=O)c4ccc(C)cc4)ccc3c(N)c2c1 | > 1190 | 997 | > 10000
COc1ccccc1N(CC(=O)N1CCCCC1)S(=O)(=O)c1ccccc1 | > 1250 | > 1070 | > 10000
COc1ccccc1N1CCN(c2ccc(NC(=O)/C=C/c3ccc([N+](=O)[O-])cc3)cc2C(=O)NCCCN(C)C)CC1 | 290 | 121 | 921
Cc1nn(CC(O)Cn2c3ccc(Br)cc3c3cc(Br)ccc32)c(C)c1Br (configuration not stated) | 769 | 177 | 75200
CCC(C)(C)C1CCc2sc3ncnc(NN=Cc4c(Cl)cccc4Cl)c3c2C1 (configuration not stated) | 733 | 904 | > 100000
COC(=O)c1c(-c2c(F)cccc2Cl)noc1/C=C/Nc1ccccc1 | 272 | 191 | > 10000
CCCCOc1c2ccccc2nc2ccccc12 | > 1250 | > 592 | > 10000
C=C(C)C(=O)OCCc1ccc(O)c(-n2nc3ccccc3n2)c1 | > 1250 | 1010 | > 10000
COc1cccc2c(C)cc(NCc3ccccc3Cl)nc12 | > 1250 | > 985 | > 10000
CCOC(=O)c1cnc2c(C)cc(C)cc2c1Nc1ccc(OC)c(OC)c1 | 1780 | 583 | > 100000
CCOC(=O)C1=C(C)NC2=C(C(=O)C(C(=O)OCC)C(c3cccc(OC)c3)C2)C1c1cc(OC)c(OC)c(OC)c1 (configuration not stated) | 1090 | 494 | > 100000
Cc1ccccc1OCCSc1nc2ccc(NC(=O)c3cccs3)cc2s1 | 497 | 1580 | > 100000
CCCCN(CCCC)CCCNc1ncnc2c1[nH]c1ccc(Cl)cc12 | 230 | 162 | 61800
CN1CCN(C(c2ccco2)c2sc3ncnn3c2O)CC1 (configuration not stated) | > 1250 | 1080 | > 10000
CCCNC(=O)CSc1nc(C)c(Cc2ccccc2)c(=O)n1C | 1280 | 1170 | > 10000
CCCOc1ccc2c(c1)C(=NN=C(N)N)c1cc(OCCC)ccc1-2 | 270 | 323 | > 10000
O=C(O)CCCCCNc1ncnc2sc3c(c12)CCCC3 | > 1250 | 869 | > 10000
COc1cc(/C=C(\C#N)c2nc3ccccc3[nH]2)ccc1OCc1ccc(Cl)cc1 | 321 | 558 | > 10000
CC(C)NC(=O)c1ccc(OC2CCN(CC3CCCCC3)CC2)c(Cl)c1 | 476 | 298 | 65900
COC(=O)c1c(S(=O)(=O)N2CCN(C)CC2)sc2c1CCN(CCCc1ccccc1)C2 | 1420 | 1260 | > 10000
CC(C)(c1ccc(Oc2ccc(NC(=O)C(F)(F)F)cc2)cc1)c1cccc(Oc2ccc(NC(=O)C(F)(F)F)cc2)c1 | 2060 | > 986 | > 10000

SMILES | EC50 [1] [nM] | EC50 [2] [nM] | CC50 [3] [nM]
COc1ccc(Nc2nc(NN=Cc3cc(Br)c(O)cc3O)nc(Nc3ccc([N+](=O)[O-])cc3)n2)cc1 | 75 | 198 | 9580
Cc1c(CN2CCC(N3CCC(C(=O)NC4CC4)CC3)CC2)[nH]c2c(Cl)cccc12 | 345 | 1400 | 56500
O=C(CS(=O)(=O)c1ccc(C(F)(F)F)cn1)NNS(=O)(=O)c1ccc(Cl)cc1 | > 1340 | 26.7 | > 10000
Cc1ccc2nc(-c3ccc(NC(=O)c4ccc(S(=O)(=O)N5CC(C)CC(C)C5)cc4)cc3)sc2c1 (configuration not stated) | 1320 | > 1250 | > 10000
CCC(c1nc2ccccc2c(=O)n1-c1ccc(F)c(Cl)c1)N(CCc1ccccc1)C(=O)COc1ccc(Cl)cc1 (configuration not stated) | 941 | < 0.849 | > 6450
CCOC(=O)C(=CNc1ccccc1[N+](=O)[O-])C(=O)OCC | 7990 | 1730 | > 100000
O=C(Nc1ccc2oc(-c3ccc(I)cc3)nc2c1)c1ccc([N+](=O)[O-])o1 | 3160 | 2200 | 33800
N#CC(=CC=Cc1ccc([N+](=O)[O-])o1)c1nc2ccccc2[nH]1 | 381 | 387 | 8690
CCN(Cc1ccccc1)Cc1c(O)ccc2oc(C)c(C(=O)Nc3ccc(C)cc3C)c12 | 3490 | 2100 | 42300
O=C(COc1ccccc1)NC(c1ccc([N+](=O)[O-])cc1)c1cc(Cl)c2cccnc2c1O (configuration not stated) | 605 | 434 | > 80600
CC(Cc1ccccc1)NCCCCCNC(C)Cc1ccccc1 (configuration not stated) | 238 | 503 | 5320
Cc1ccc(-c2cc(N3CCCC3CO)n3nccc3n2)cc1 (configuration not stated) | 1140 | 1250 | > 100000
CCCN(CCC)C1=CC(=O)C(C(C)(C)C)=CC1=O | 216 | 171 | 50900
O=C(NCCc1ccccc1)C(=O)NN=Cc1ccccc1 | > 1250 | > 82 | > 10000
Oc1ccc(-c2ccc3c(c2)OCO3)cc1CNC12CC3CC(CC(C3)C1)C2 | 832 | 225 | > 100000
CC(=NNC(N)=S)C(C)=NNC(N)=S | 572 | 462 | > 100000
O=C(C=Cc1ccc(Br)cc1)NC(=O)c1ccccc1O | 684 | 2040 | > 100000
CC(C)(C)CC(C)(C)Nc1c(-c2ccccc2OC(=O)C2CCCC2)nc2ccccn12 | 2100 | 29.9 | > 10000
CCC1CCCCN1CCCNC(=O)c1cn(CC)c(=O)c2cc(OC)c(OC)cc12 (configuration not stated) | 449 | 505 | > 100000
CCOC(=O)c1cnc2c(C)cccc2c1Nc1cccc(C(C)=O)c1 | 1020 | 607 | > 100000
COc1ccc(-c2noc(N3CCc4ccccc4C3)n2)cc1 | 200 | 125 | > 10000
COc1cc(/C=C(\C#N)c2nc3ccccc3[nH]2)ccc1OCc1ccc(C)cc1 | 1050 | 1470 | > 10000
COc1cc(NCc2cnc(N)nc2N)cc(OC)c1 | 330 | 99.2 | > 10000

SMILES | EC50 [1] [nM] | EC50 [2] [nM] | CC50 [3] [nM]
CCCCCCn1c2c(c(=N)c3ccccc31)CCC2 | 681 | > 1120 | > 10000
O=C(COC(c1cccs1)c1cccnc1Cl)N1CCN(CCO)CC1 (configuration not stated) | > 12500 | 1290 | > 100000
N#CCSc1ncccc1C(=O)NCCc1ccc(Oc2ccccc2)cc1 | 1630 | > 130 | > 10000
Cc1ccccc1Oc1cc(NC(=O)c2cc3n(n2)C(C(F)(F)F)CC(c2ccccc2)N3)cc(Oc2ccccc2C)c1 (configuration not stated) | 359 | 380 | > 100000
O=C(Cc1cccs1)NC1CCN(CC(O)CN(Cc2ccccc2)S(=O)(=O)c2ccccc2)C1 (configuration not stated) | 181 | > 1250 | > 10000
COc1ccc(CCNc2nc(NCCCN3CCCC3)ncc2C(=O)NCC(C)C)cc1OC | 809 | > 1350 | > 10000
O=C(c1c2c(nc3ccccc13)CCC2)N1CCc2ccccc21 | 1940 | < 36.7 | > 11700
CC(=O)Oc1ccccc1-c1nc2cc(C)ccn2c1NC(C)(C)CC(C)(C)C | 389 | < 5.33 | > 10000
CC(C)N1CCC(N2CCN(Cc3ccc4c(c3)Cc3ccccc3-4)CC2CCO)CC1 (configuration not stated) | 1540 | 905 | 20500
CC(C)(C)c1csc(NC(=O)c2ccc(S(=O)(=O)N3CCCCC3)cc2)n1 | > 12500 | 175 | 49100
CCC(Cc1cnc2nc(N)nc(N)c2n1)c1ccc(C(=O)N[C@@H](CCC(=O)O)C(=O)O)cc1 (some centres not stated) [EDATREXATE] | 14.8 | 108 | 30.4
CC(C)(C)CC(C)(C)Nc1c(-c2ccccc2OC(=O)c2ccccc2F)nc2ccccn12 | 1300 | 97.9 | > 10000
CCOC(=O)C1=C(C)N=c2sc(=Cc3cc(Br)ccc3O)c(=O)n2C1c1ccccc1 (configuration not stated) | 5530 | 1400 | > 100000
Cc1c(C)c(C)c(CNC(=S)NN)c(C)c1C | 4090 | > 11400 | > 100000
CCOC(=O)C1=NNC2C(=O)N(c3cccc(C)c3C)C(=O)C12 (configuration not stated) | > 1250 | 563 | > 10000
Cc1c(Cl)cccc1NCC(=O)NN=C1CCCC1 | > 1250 | > 948 | > 10000
CCc1cccc(NC(=O)N2CCN(C(=O)c3nc(-c4ccccc4)nc(C)c3C(=O)OC(C)C)CC2C)c1 (configuration not stated) | 719 | < 14.1 | > 10000
COc1ccccc1NC1=CC(=NS(=O)(=O)c2cccs2)c2ccccc2C1=O | 1070 | 906 | 19700
COc1ccc(C2CC(c3cccs3)=NN2C(=O)CSc2nnc(CNC(=O)c3cccs3)n2-c2cccc(C)c2)cc1 (configuration not stated) | 10400 | 1610 | > 100000
CCCCCCN(C(=O)c1ccc(C(C)(C)C)cc1)C(CC)c1nc2ccccc2c(=O)n1-c1ccc(F)cc1 (configuration not stated) | 795 | 1020 | > 10000
OC1(c2ccc3ccccc3c2)c2c(c3ccccc3c3ccccc23)C2=NCCN21 (configuration not stated) | 252 | 281 | > 10000
COc1ccc2cc(C(C)=NO)ccc2c1 | > 12500 | > 5970 | > 100000
CC(C)=CCCC(C)=CCCC(C)NCCN1CCNCC1 (configuration not stated) | 411 | 140 | 6690
